# Measurements taken from patent publication US4950686A, “Anti-mycoplasma agent” (Shionogi & Co., Ltd., priority 1986, dated 1990).
# Tested on: Mycoplasma gallisepticum S6 (standard strain)
# Assay: Mycoplasma gallisepticum air-sac infection method in chicken, strain S6
# Format: in vivo, Mycoplasma gallisepticum; SPF chicken (white leghorn)
# Method in brief: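 Right air sac of 9-day-old SPF white leghorn chickens (water/feed withheld 1 day) inoculated with 24-48 h culture diluted ~100×; compound given once orally by cannula right after infection. At day 5, air-sac lesions scored 0-3 (index = right + 2×left), and organisms isolated from both air sacs and trachea.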
# [1] = 50 mg/kg × once oral, 5 mg/ml sol. b, inoculum 6.3 × 10^4
# [2] = 100 mg/kg × once oral, 10 mg/ml sol. b, inoculum 1.2 × 10^6
# [3] = 100 mg/kg × once oral, 10 mg/ml sol. b, inoculum 6.3 × 10^4
# [4] = 200 mg/kg × once oral, 20 mg/ml sol. a, inoculum 3.1 × 10^5
# [5] = 200 mg/kg × once oral, 20 mg/ml sol. c, inoculum 3.1 × 10^5
structure (smiles),measurement,setting,value
"O=c1cccccc1O [Tropolone, tropolone]","Change of air-sac, left: + (chickens)",[1],0
same,"Change of air-sac, left: ++ (chickens)",[1],0
same,"Change of air-sac, left: +++ (chickens)",[1],0
same,"Change of air-sac, left: - (chickens)",[1],5
same,"Change of air-sac, right: + (chickens)",[1],2
same,"Change of air-sac, right: ++ (chickens)",[1],0
same,"Change of air-sac, right: +++ (chickens)",[1],0
same,"Change of air-sac, right: - (chickens)",[1],3
same,"Isolation, L (left air-sac)",[1],0
same,"Isolation, R (right air-sac)",[1],2
same,Mycoplasma Isolated Chickens,[1],2
same,Index of Disease,"50 mg/kg × once oral, 5 mg/ml sol. b, inoculum 6.3 × 10^4, range 0-9.0",0.4
same,Index of Isolation,"50 mg/kg × once oral, 5 mg/ml sol. b, inoculum 6.3 × 10^4, trachea ND, range 0-6.0",0.4
same,"Change of air-sac, left: + (chickens)",[2],0
same,"Change of air-sac, left: ++ (chickens)",[2],0
same,"Change of air-sac, left: +++ (chickens)",[2],0
same,"Change of air-sac, left: - (chickens)",[2],8
same,"Change of air-sac, right: + (chickens)",[2],0
same,"Change of air-sac, right: ++ (chickens)",[2],0
same,"Change of air-sac, right: +++ (chickens)",[2],0
same,"Change of air-sac, right: - (chickens)",[2],8
same,"Isolation, L (left air-sac)",[2],0
same,"Isolation, R (right air-sac)",[2],0
same,"Isolation, T (trachea)",[2],0
same,Mycoplasma Isolated Chickens,[2],0
same,Index of Isolation,"100 mg/kg × once oral, 10 mg/ml sol. b, inoculum 1.2 × 10^6, range 0-6.0",0
same,Index of Disease,"100 mg/kg × once oral, 10 mg/ml sol. b, inoculum 1.2 × 10^6, range 0-9.0",0
same,"Change of air-sac, left: + (chickens)",[3],0
same,"Change of air-sac, left: ++ (chickens)",[3],0
same,"Change of air-sac, left: +++ (chickens)",[3],0
same,"Change of air-sac, left: - (chickens)",[3],5
same,"Change of air-sac, right: + (chickens)",[3],1
same,"Change of air-sac, right: ++ (chickens)",[3],0
same,"Change of air-sac, right: +++ (chickens)",[3],0
same,"Change of air-sac, right: - (chickens)",[3],4
same,"Isolation, L (left air-sac)",[3],0
same,"Isolation, R (right air-sac)",[3],0
same,Mycoplasma Isolated Chickens,[3],0
same,Index of Disease,"100 mg/kg × once oral, 10 mg/ml sol. b, inoculum 6.3 × 10^4, range 0-9.0",0.2
same,Index of Isolation,"100 mg/kg × once oral, 10 mg/ml sol. b, inoculum 6.3 × 10^4, trachea ND, range 0-6.0",0
same,"Change of air-sac, left: + (chickens)",[4],0
same,"Change of air-sac, left: ++ (chickens)",[4],0
same,"Change of air-sac, left: +++ (chickens)",[4],0
same,"Change of air-sac, left: - (chickens)",[4],5
same,"Change of air-sac, right: + (chickens)",[4],0
same,"Change of air-sac, right: ++ (chickens)",[4],0
same,"Change of air-sac, right: +++ (chickens)",[4],0
same,"Change of air-sac, right: - (chickens)",[4],5
same,"Isolation, L (left air-sac)",[4],0
same,"Isolation, R (right air-sac)",[4],1
same,"Isolation, T (trachea)",[4],0
same,Mycoplasma Isolated Chickens,[4],1
same,Index of Isolation,"200 mg/kg × once oral, 20 mg/ml sol. a, inoculum 3.1 × 10^5, range 0-6.0",0.2
same,Index of Disease,"200 mg/kg × once oral, 20 mg/ml sol. a, inoculum 3.1 × 10^5, range 0-9.0",0
same,"Change of air-sac, left: + (chickens)",[5],0
same,"Change of air-sac, left: ++ (chickens)",[5],0
same,"Change of air-sac, left: +++ (chickens)",[5],0
same,"Change of air-sac, left: - (chickens)",[5],5
same,"Change of air-sac, right: + (chickens)",[5],0
same,"Change of air-sac, right: ++ (chickens)",[5],0
same,"Change of air-sac, right: +++ (chickens)",[5],0
same,"Change of air-sac, right: - (chickens)",[5],5
same,"Isolation, L (left air-sac)",[5],0
same,"Isolation, R (right air-sac)",[5],0
same,"Isolation, T (trachea)",[5],0
same,Mycoplasma Isolated Chickens,[5],0
same,Index of Isolation,"200 mg/kg × once oral, 20 mg/ml sol. c, inoculum 3.1 × 10^5, range 0-6.0",0
same,Index of Disease,"200 mg/kg × once oral, 20 mg/ml sol. c, inoculum 3.1 × 10^5, range 0-9.0",0
